Laboratory results from ChEMBL document CHEMBL5338771, “Trioxacarcin A Interactions with G-Quadruplex DNA Reveal Its Potential New Targets as an Anticancer Agent” (J Med Chem, 2023).
Calls of active or inactive are those of the source. The calls are words filed in the database; no cut-off is given here.

Legend:
Type in all cases: nucleic-acid assay
Quadruplex DNA [1] = experiment: Covalent binding affinity to RET G4 quadruplex DNA (unknown origin) assessed as alkylation at G6 base by DNA cleavage assay
Quadruplex DNA [2] = experiment: Covalent binding affinity to RET G4 quadruplex DNA (unknown origin) assessed as stable complex formation measured after 9 days by mass spectrum analysis; conditions: time 9.0 day
Quadruplex DNA [3] = experiment: Covalent binding affinity to RET G4 quadruplex DNA (unknown origin) by measuring molecular weight for complex formation by ESI mass spectrum analysis
Quadruplex DNA [4] = experiment: Induction of DNA stabilization in RET G4 quadruplex DNA (unknown origin) containing 2'-F base G4 assessed as melting temperature (reference value: 71.99 degreeC)
Quadruplex DNA [5] = experiment: Binding affinity to c-MYC G4 quadruplex DNA (unknown origin) by 1D 1H-NMR analysis
Quadruplex DNA [6] = experiment: Induction of DNA stabilization in abasic-basic RET G4 quadruplex DNA (unknown origin) assessed as melting temperature in 100 mM K+ buffer solution by DSC spectra analysis
Quadruplex DNA [7] = experiment: Covalent binding affinity to RET G4 quadruplex DNA (unknown origin) assessed as alkylation at G4 base at 98 degC for 5 mins by DNA cleavage assay
Quadruplex DNA [8] = experiment: Covalent binding affinity to RET G4 quadruplex DNA (unknown origin) assessed as stable complex formation by measuring molecular weight peak after 19 days by mass spectrum analysis; conditions: time 19.0 day
Quadruplex DNA [9] = experiment: Covalent binding affinity to RET G4 quadruplex DNA (unknown origin) assessed as alkylation at G14 base by DNA cleavage assay
Quadruplex DNA [10] = experiment: Binding affinity to RET G4 quadruplex DNA (unknown origin) by measuring chemical shift change for 0 to 21 days by 1D 1H-NMR analysis; conditions: time 0-21 day
Quadruplex DNA [11] = experiment: Induction of DNA stabilization in free RET G4 quadruplex DNA (unknown origin) assessed as melting temperature in 100 mM K+ buffer solution by DSC spectra analysis

Activity (Quadruplex DNA [1]): inactive
Activity (Quadruplex DNA [2]): Active
Activity (Quadruplex DNA [3]): 6450 Da
Tm (Quadruplex DNA [4]): 74.7 °C
Activity (Quadruplex DNA [5]): Active
Tm (Quadruplex DNA [6]): 78 °C
Activity (Quadruplex DNA [7]): Active
Activity (Quadruplex DNA [8]): 7330 Da
Activity (Quadruplex DNA [9]): inactive
Activity (Quadruplex DNA [10]): Active
Tm (Quadruplex DNA [11]): 91 °C
Compound: COc1c2c(c(O)c3c4c(c(C)cc13)C1O[C@@]3(C(OC)OC)OC1[C@](O[C@H]1C[C@@H](O)[C@@](O)(C(C)=O)[C@H](C)O1)(O4)C31CO1)C(=O)[C@@H](O)C[C@@H]2OC1C[C@](C)(O)[C@@H](OC(C)=O)[C@@H](C)O1 (stereo partly specified)
